The source of these data is patent publication US7081260B2, “α-Glucosidase inhibitors from a natural source” (Council of Scientific and Industrial Research, priority 2002, dated 2006).

The structures appear in SMILES notation. Converted amounts (≈) assume the structure as drawn.

The target in experiment [1] is yeast α-glucosidase enzyme. As to the kind of experiment: α-glucosidase inhibitory assay by the chromogenic method. The experiment is classed as biochemical. The conditions noted are these: p-nitrophenyl-α-D-glucopyranoside substrate; for IC50 value: pH 7.00; for α-glucosidase inhibitory activity up to: pH 7.00, maximum inhibition. The procedure:
Determination of α-Glucosidase Inhibition Activity of Compounds Isolated From P. longum:
The α-glucosidase inhibitory assay was done by the chromogenic method. In brief 10 μl of test compounds dissolved in DMSO (5 mg/ml and subsequent dilutions) were incubated for 5 min. with 5 μl of yeast α-glucosidase enzyme prepared in 100 mM phosphate buffer (pH 7.00). After 5 minutes of incubation, […] of 5 mM substrate (p-nitrophenyl-α-D-glucopyranoside prepared in the same buffer) were added. The pre-substrate and 5-min post-substrate addition absorbances were recorded at 405 nm spectrophotometrically. The increases in absorbance from pre-substrate addition to post substrate reaction were obtained. Percent inhibition was calculated by (1-O.D test/O.D control)×100 and inhibitory concentration 50% (IC50) was calculated by applying suitable regression analysis.

Experiment [2] deals with Cladosporiumsphaerosperm. The conditions noted are these: against Cladosporiumsphaerosperm; cited from earlier work.
Experiment [3] deals with Musca Domestica. The conditions noted are these: against Musca Domestica; cited from earlier work.
Experiment [4] has as its system 8 Mycobacterium stains. The note with it: against 8 Mycobacterium stains; cited from earlier work.
In experiment [5] the test system is Collosobruchus chinenses. The conditions noted are these: against Collosobruchus chinenses; cited from earlier work.
For experiment [6], the system named is Leplinotarsa dectmlineata. The note with it: against Leplinotarsa dectmlineata; cited from earlier work.
Experiment [7] concerns p. gossipiella, H. virescens, H. ze. The note with it: against p. gossipiella; cited from earlier work.
Experiment [8] has as its system Aedus Eriseratus larvae. The conditions noted are these: against Aedus Eriseratus larvae; cited from earlier work.
In experiment [9] the test system is Moth fly (Telmatoscopus Albipunctatus). The note with it: against Moth fly (Telmatoscopus Albipunctatus); cited from earlier work.
Experiment [10] deals with Toxocara canis. The note with it: against Toxocara canis; cited from earlier work.
The conditions of experiment [11]: in vivo; cited from earlier work.

On to `c1cc2c(cc1[C@H]1OC[C@H]3[C@@H]1CO[C@@H]3c1ccc3c(c1)OCO3)OCO2` [sesamin, 5,5-(tetrahydro-1H,3H-furo(3,4-e)furan-1,4-diyl)bis-1,3-benzodioxol], for which, in [1], the IC50 value was 36.35 µg/mL (≈ 103 µM) and the “α-glucosidase inhibitory activity up to” value is given as “up to 76.18%”.
Taken in the same sequence, the figures for `CC(C)CNC(=O)C=CC=CCCCCCCCCC=Cc1ccc2c(c1)OCO2` [brachystamide-B, 15-(1,3-benzodioxol-5-yl)-N(2-methylpropyl)-2,4,14-pentadecatrienamide] were 33.61 µg/mL (≈ 81.7 µM) and “up to 73.90%”.
Take `CCCCCC=CC=CC(=O)NCC(C)C` [pellitorine, N-(2-methylpropyl)-2,4-decadienamide]: the “BIOLOGICAL ACTIVITY: antifungal” value in experiment [2] was “Antifungal against”. For the same compound, the “BIOLOGICAL ACTIVITY: insecticidal” value is recorded as “Insecticidal against Musca” in experiment [3], “Insecticidal against” in [5] and “Insecticidal activities against” in [9]. The IC50 value in experiment [1] is 34.43 µg/mL (≈ 154 µM). Besides, the “α-glucosidase inhibitory activity up to” value in experiment [1] is recorded as “up to 86.03%”. For the same compound, the “BIOLOGICAL ACTIVITY: antituberculotic” value in experiment [4] is “Antituberculotic against 8”. Moreover, in [6], the “BIOLOGICAL ACTIVITY: ovicidal” value is “Ovicidal against Leplinotarsa”. Further, the “BIOLOGICAL ACTIVITY: insect growth inhibitor” value in [7] is given as “Insectgrowth inhibitor against”. In addition, the “BIOLOGICAL ACTIVITY: larvicida activity” value in experiment [8] is listed as “Larvicida activity against”.
Turning to `CC(C)CNC(=O)/C=C/C=C/CCCCCC/C=C/c1ccc2c(c1)OCO2` [guineensine, 13-(1,3-benzodioxol-5-yl)-N(2-methylpropyl)-2,4,12-tri decatrienamide], in experiment [1], the IC50 value stood at 20.15 µg/mL (≈ 52.5 µM) and the “α-glucosidase inhibitory activity up to” value is “up to 61.71%”. For the same compound, the “BIOLOGICAL ACTIVITY: larvicidal” value in experiment [10] is listed as “Larvicidal against Toxocara”. Also, the “BIOLOGICAL ACTIVITY: insecticidal” value in experiment [5] is “Insectcidal against”. Moreover, the “BIOLOGICAL ACTIVITY: insecticidal activity” value in experiment [11] is on record as “Insecticidal activity”.
Regarding `CCCCCCCCCCC=Cc1ccc2c(c1)OCO2` [pipataline, 5-(1-dodecenyl)-1,3-benzodioxol], in [1], the IC50 value was 26.52 µg/mL (≈ 91.9 µM) and the “α-glucosidase inhibitory activity up to” value is given as “up to 77.45%”.
